A word on the Dmax: it is the largest share of the target that was removed. Low readings indicate shallow degradation, high ones deep degradation. By DC50 is commonly meant the concentration at which degradation of the target reaches its halfway point.

This test has as its target SMARCA2 (Homo sapiens, UniProt P51531). The test is described as follows: MSD SMARCA2 degradation in NCI-H1299 cell line (24 h). To be noted: for Dmax: NCI-H1299, NCI-H1299 cells; for DC50: read-out: SMARCA2 MSD H1299 degradation 24 h: External Abs-DC50. The class given is cell-based. The arrangement: HC: NCI-H1299 cells treated with DMSO; host or cells: NCI-H1299. In outline: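 NCI-H1299 cells treated 24 h with a 3-fold, 9-point compound dilution series, then lysed in RIPA with protease inhibitor. SMARCA2 in lysate-coated MSD plates detected with rabbit anti-SMARCA2 (0.3 ug/ml) and SULFO-TAG secondary. Relative SMARCA2 level normalized between DMSO-treated H1299 cells and SMARCA2-negative A2780 cells; Dmax % binned A–D.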

Chain of SMARCA2 (P51531 whole entry): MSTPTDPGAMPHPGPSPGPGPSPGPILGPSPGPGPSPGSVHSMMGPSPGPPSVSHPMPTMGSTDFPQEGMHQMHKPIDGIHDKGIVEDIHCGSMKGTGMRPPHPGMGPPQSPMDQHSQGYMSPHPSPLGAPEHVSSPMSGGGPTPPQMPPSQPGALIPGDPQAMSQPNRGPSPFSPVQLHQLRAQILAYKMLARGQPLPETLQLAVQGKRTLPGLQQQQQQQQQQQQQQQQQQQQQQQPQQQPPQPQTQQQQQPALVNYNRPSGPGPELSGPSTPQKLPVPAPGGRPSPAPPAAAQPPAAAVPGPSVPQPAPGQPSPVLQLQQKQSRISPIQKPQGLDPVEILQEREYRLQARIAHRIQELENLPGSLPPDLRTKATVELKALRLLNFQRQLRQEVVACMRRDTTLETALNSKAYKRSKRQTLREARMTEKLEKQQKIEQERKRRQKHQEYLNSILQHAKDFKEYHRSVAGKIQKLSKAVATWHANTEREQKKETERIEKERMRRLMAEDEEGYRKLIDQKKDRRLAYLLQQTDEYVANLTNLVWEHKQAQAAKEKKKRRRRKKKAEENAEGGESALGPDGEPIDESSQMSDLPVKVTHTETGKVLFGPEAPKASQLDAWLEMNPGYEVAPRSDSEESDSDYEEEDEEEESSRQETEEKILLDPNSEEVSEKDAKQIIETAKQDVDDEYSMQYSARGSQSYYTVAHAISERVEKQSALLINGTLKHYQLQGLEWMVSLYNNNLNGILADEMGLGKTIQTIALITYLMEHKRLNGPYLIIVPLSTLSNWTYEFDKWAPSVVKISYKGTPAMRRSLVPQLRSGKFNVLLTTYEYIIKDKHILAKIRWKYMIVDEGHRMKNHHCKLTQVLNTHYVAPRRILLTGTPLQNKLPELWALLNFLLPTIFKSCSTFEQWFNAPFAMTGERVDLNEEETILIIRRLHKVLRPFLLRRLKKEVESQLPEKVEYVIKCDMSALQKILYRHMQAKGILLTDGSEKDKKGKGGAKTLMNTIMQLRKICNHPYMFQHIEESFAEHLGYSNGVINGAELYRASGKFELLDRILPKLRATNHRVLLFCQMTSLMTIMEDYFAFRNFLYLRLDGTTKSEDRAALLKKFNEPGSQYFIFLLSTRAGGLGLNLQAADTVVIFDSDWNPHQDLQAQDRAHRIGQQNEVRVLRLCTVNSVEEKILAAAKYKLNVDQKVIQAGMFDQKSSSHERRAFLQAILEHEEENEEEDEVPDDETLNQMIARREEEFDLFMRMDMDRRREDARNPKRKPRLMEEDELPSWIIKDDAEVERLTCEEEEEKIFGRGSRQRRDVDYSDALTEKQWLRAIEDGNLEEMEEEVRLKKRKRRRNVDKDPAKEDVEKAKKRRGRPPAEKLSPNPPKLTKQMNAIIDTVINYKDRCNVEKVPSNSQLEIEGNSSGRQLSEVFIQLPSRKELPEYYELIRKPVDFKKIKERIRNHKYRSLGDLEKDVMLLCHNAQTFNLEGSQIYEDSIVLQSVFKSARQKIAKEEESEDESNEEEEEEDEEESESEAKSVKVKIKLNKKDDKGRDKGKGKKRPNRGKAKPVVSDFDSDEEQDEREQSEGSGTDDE

As for `Cn1c(=O)n(C2CCC(=O)NC2=O)c2ccc(CCCCCCCc3nccc(N4C5CCC4CN(c4cc(-c6ccccc6O)nnc4N)C5)n3)cc21` (centres unmarked) [I-287, 3-(5-(7-(4-(3-(3-amino-6-(2-hydroxyphenyl)pyridazin-4-yl)-3,8-diazabicyclo[3.2.1]octan-8-yl)pyrimidin-2-yl)heptyl)-3-methyl-2-oxo-2,3-dihydro-1H-benzo[d]imidazol-1-yl)piperidine-2,6-dione], the Dmax was over 90%. Moreover, for the setting “NCI-H1299 cells”, the DC50 lay within 100 to 500 nM.

In the case of `Cc1ncsc1-c1ccc(CNC(=O)[C@@H]2C[C@@H](O)CN2C(=O)[C@@H](NC(=O)[C@H]2CC[C@@H](c3cnc(N4C5CCC4CN(c4cc(-c6ccccc6O)nnc4N)C5)nc3)CC2)C(C)(C)C)cc1` [I-336], for the setting “NCI-H1299 cells”, the DC50 was under 100 nM.

For the compound `Cc1ncsc1-c1ccc(CNC(=O)[C@@H]2C[C@@H](O)CN2C(=O)[C@@H](NC(=O)[C@H]2CC[C@H](c3cnc(N4C5CCC4CN(c4cc(-c6ccccc6O)nnc4N)C5)nc3)CC2)C(C)(C)C)cc1` [I-337, (2S,4R)-1-((2S)-2-((1r,4S)-4-(2-(3-(3-amino-6-(2-hydroxyphenyl)pyridazin-4-yl)-3,8-diazabicyclo[3.2.1]octan-8-yl)pyrimidin-5-yl)cyclohexanecarboxamido)-3,3-dimethylbutanoyl)-4-hydroxy-N-(4-(4-methylthiazol-5-yl)benzyl)pyrrolidine-2-carboxamide], the Dmax was over 90%. Also, the DC50 (NCI-H1299 cells) is under 100 nM.

Regarding `Cc1ncsc1-c1ccc(CNC(=O)[C@@H]2C[C@@H](O)CN2C(=O)[C@@H](NC(=O)[C@H]2CC3(C2)C[C@H](N2CCC(n4cc(-c5cc(-c6ccccc6O)nnc5N)cn4)CC2)C3)C(C)(C)C)cc1` (some centres unmarked) [I-389], for the setting “NCI-H1299 cells”, the “SMARCA2 MSD H1299 degradation 24 h: Dmax %” value is “A (A (>90% degradation))” and the DC50 is 100 to 500 nM.

`Cc1ncsc1-c1ccc(CNC(=O)[C@@H]2C[C@@H](O)CN2C(=O)[C@@H](NC(=O)[C@H]2CC[C@@H](CN3CCC(n4cc(-c5cc(-c6ccccc6O)nnc5N)cn4)CC3)CC2)C(C)(C)C)cc1` [I-402] gave a Dmax of 70 to 90%. For the same compound, the DC50 (NCI-H1299 cells) fell in the range of 100 to 500 nM.

Regarding `Cc1ncsc1-c1ccc(CNC(=O)[C@@H]2C[C@@H](O)CN2C(=O)[C@@H](NC(=O)[C@H]2CC[C@H](CN3CCC(n4cc(-c5cc(-c6ccccc6O)nnc5N)cn4)CC3)CC2)C(C)(C)C)cc1` [I-403], the Dmax is over 90%. Moreover, the DC50 (NCI-H1299 cells) was in the range of 100 to 500 nM.

These data come from patent US12624044B2, “SMARCA degraders and uses thereof” (Kymera Therapeutics, Inc., priority 2019, dated 2026).
